Test results taken from PubChem BioAssay (NCI).
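Growth conditions: 96-well plates. Treatment: test compound, 48 hours, 5 concentrations. Analysis: linear interpolation between bracketing concentrations; unreached endpoints set to highest concentration. TGI: concentration producing complete growth inhibition.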

How the values were obtained:
Experiment in all cases: growth of human tumour cells (NCI), 48 h
HCT-116 colon = system: HCT-116 colon
A498 renal = system: A498 renal
SW-620 colon = system: SW-620 colon
HT29 colon = system: HT29 colon
CAKI-1 renal = system: CAKI-1 renal
EKVX NSCLC = system: EKVX NSCLC
SF-268 CNS = system: SF-268 CNS
COLO 205 colon = system: COLO 205 colon
A549 NSCLC = system: A549 NSCLC
PC-3 prostate = system: PC-3 prostate
MDA-MB-435 = system: MDA-MB-435
MOLT-4 leukemia = system: MOLT-4 leukemia
OVCAR-4 ovarian = system: OVCAR-4 ovarian
NCI-H522 lung = system: NCI-H522 lung
ACHN renal = system: ACHN renal
LOX IMVI melanoma = system: LOX IMVI melanoma
MCF7 breast = system: MCF7 breast
SK-MEL-28 melanoma = system: SK-MEL-28 melanoma
DU-145 prostate = system: DU-145 prostate
HOP-92 NSCLC = system: HOP-92 NSCLC
UACC-257 melanoma = system: UACC-257 melanoma
IGROV1 ovarian = system: IGROV1 ovarian
KM12 colon = system: KM12 colon
MDA-N = system: MDA-N
SK-OV-3 ovarian = system: SK-OV-3 ovarian
K-562 leukemia = system: K-562 leukemia
NCI-H226 lung = system: NCI-H226 lung
SK-MEL-5 melanoma = system: SK-MEL-5 melanoma
CCRF-CEM leukemia = system: CCRF-CEM leukemia
SN12C renal = system: SN12C renal
SNB-19 CNS = system: SNB-19 CNS
MALME-3M melanoma = system: MALME-3M melanoma
T-47D breast = system: T-47D breast
SK-MEL-2 melanoma = system: SK-MEL-2 melanoma
OVCAR-8 ovarian = system: OVCAR-8 ovarian
NCI-H23 lung = system: NCI-H23 lung
HCC-2998 colon = system: HCC-2998 colon
BT-549 breast = system: BT-549 breast
MDA-MB-231 breast = system: MDA-MB-231 breast
UO-31 renal = system: UO-31 renal
SF-539 CNS = system: SF-539 CNS
TK-10 renal = system: TK-10 renal
SR leukemia = system: SR leukemia
RPMI-8226 leukemia = system: RPMI-8226 leukemia
HOP-62 NSCLC = system: HOP-62 NSCLC
NCI-H460 lung = system: NCI-H460 lung
UACC-62 melanoma = system: UACC-62 melanoma
786-0 renal = system: 786-0 renal
SF-295 CNS = system: SF-295 CNS
OVCAR-3 ovarian = system: OVCAR-3 ovarian
U251 CNS = system: U251 CNS
HCT-15 colon = system: HCT-15 colon
HS 578T breast = system: HS 578T breast
NCI/ADR-RES ovarian = system: NCI/ADR-RES ovarian
M14 melanoma = system: M14 melanoma
HL-60(TB) leukemia = system: HL-60(TB) leukemia
SNB-75 CNS = system: SNB-75 CNS
OVCAR-5 ovarian = system: OVCAR-5 ovarian

Measured: TGI

COc1ccc(OC)c2c1C=CC(Br)=CC2
0.488 µM: SR leukemia
0.302 µM: LOX IMVI melanoma
0.463 µM: HOP-92 NSCLC
0.478 µM: MOLT-4 leukemia
0.544 µM: 786-0 renal
0.358 µM: SK-OV-3 ovarian
0.312 µM: MALME-3M melanoma
0.449 µM: HCC-2998 colon
0.529 µM: MDA-N
0.373 µM: SF-295 CNS
0.485 µM: HCT-15 colon
0.345 µM: UACC-62 melanoma
0.853 µM: MDA-MB-435
0.913 µM: CAKI-1 renal
0.835 µM: BT-549 breast
0.958 µM: MDA-MB-231 breast
0.284 µM: HT29 colon
0.85 µM: KM12 colon
0.915 µM: HOP-62 NSCLC
0.419 µM: K-562 leukemia
0.387 µM: RPMI-8226 leukemia
0.579 µM: NCI-H522 lung
0.942 µM: UACC-257 melanoma
0.822 µM: M14 melanoma
0.672 µM: HCT-116 colon
0.681 µM: T-47D breast
0.247 µM: SK-MEL-2 melanoma
not listed: HL-60(TB) leukemia | SNB-75 CNS | OVCAR-5 ovarian
> 1 µM: all other assays above

COC1CC(OC2C(C)OC(OC3C(C)OC(OC4C(C)OC(O[C@H]5CC[C@@]6(C)C(=CC[C@]7(O)[C@@H]6C[C@@H](OC(C)=O)[C@@]6(C)[C@]7(O)CC[C@@]6(O)C(C)=O)C5)CC4OC)CC3OC)CC2OC)OC(C)C1O (stereo not given in full)
not listed: A498 renal | SK-MEL-28 melanoma | NCI-H460 lung
> 25 µM: all other assays above
